Values of other authors as cited in patent US20170027865A1, “Dry Pharmaceutical Compositions for Topical Delivery of Oral Medications, Nasal Delivery and to Treat Ear Disorders” (CMPD LICENSING LLC, priority 2013, published 2017).

Key:
Providencia rettgeri = settings: Gram: neg
Shigella flexneri = settings: Gram: neg
Citrobacter freundii = settings: Gram: neg
Haemophilus influenzae = settings: Gram: neg
Pseudomonas aeruginosa = settings: Gram: neg
Proteus mirabilis = settings: Gram: neg
Streptococcus pyogenes = settings: Gram: pos
Klebsiella pneumoniae = settings: Gram: neg
Proteus vulgaris = settings: Gram: neg
Shigella dysenteriae = settings: Gram: neg
Shigella boydii = settings: Gram: neg
[1] = system: Acinetobacter calcoaceticus; settings: Gram: neg
[2] = system: Staphylococcus aureus (MSSA); settings: Gram: pos
Corynebacterium jeikeium = settings: Gram: pos
Francisella tularensis = settings: Francisella tularensis; Gram: neg
[3] = system: Corynebacterium urealyticum; settings: Gram: pos
Neisseria meningitidis = settings: Gram: neg
Brucella species = settings: Brucella species; Gram: neg
Salmonella typhi = settings: Gram: neg
Legionella pneumophila = settings: Legionella pneumophila; Gram: neg
Yersinia pestis = settings: Yersinia pestis; Gram: neg
Campylobacter jejuni = settings: Gram: neg
Enterobacter aerogenes = settings: Gram: neg
Acinetobacter baumannii = settings: Gram: neg
[4] = system: Klebsiella (Calymmatobacterium) granulomatis; settings: Gram: neg
Serratia marcescens = settings: Gram: neg
Haemophilus ducreyi = settings: Gram: neg
[5] = system: Methicillin Resistant Staph aureus (MRSA); settings: Gram: pos
Citrobacter diversus = settings: Gram: neg
Providencia stuartii = settings: Gram: neg
Neisseria gonorrhoeae = settings: Gram: neg
Bartonella bacilliformis = settings: Gram: neg
Vibrio cholerae = settings: Gram: neg
Bordetella pertussis = settings: Gram: neg
Enterobacter sakazakii = settings: Gram: neg
Klebsiella oxytoca = settings: Gram: neg
Clostridium perfringens = settings: Clostridium perfringens; Gram: anaer
Morganella morganii = settings: Gram: neg
Acinetobacter lwoffii = settings: Gram: neg
Escherichia coli = settings: Gram: neg
Enterobacter cloacae = settings: Gram: neg
Shigella sonnei = settings: Gram: neg
Rickettsiae = settings: Rickettsiae; Gram: neg
Moraxella catarrhalis = settings: Gram: neg
Pseudomonas fluorescens = settings: Gram: neg
[6] = system: Haemophilus parainfluenzae; settings: Gram: neg
Enterococcus faecium = settings: Gram: pos
[7] = system: Staphylococcus epidermidis; settings: Gram: pos
Bacteroides fragilis = settings: Gram: anaer
Chlamydia pneumoniae = settings: Gram: n/a
Mycoplasma pneumoniae = settings: Gram: n/a
[8] = system: Viridans group streptococci; settings: Gram: pos
Chlamydia psittaci = settings: Chlamydia psittaci; Gram: n/a
Chlamydia trachomatis = settings: Gram: n/a
Streptococcus agalactiae = settings: Gram: pos
Diphtheroids = settings: Gram: pos
Enterococcus faecalis = settings: Gram: pos
Peptostreptococcus = settings: Gram: pos
Clostridium difficile = settings: Gram: anaer
Streptococcus pneumoniae = settings: Gram: pos

C/C(=C\C(=O)OCCCCCCCCC(=O)O)C[C@@H]1OC[C@H](C[C@@H]2O[C@H]2[C@@H](C)[C@H](C)O)[C@@H](O)[C@H]1O [Bactroban]
Expected coverage (Providencia rettgeri): no | Expected coverage (Shigella flexneri): no | Expected coverage (Citrobacter freundii): no | Expected coverage (Haemophilus influenzae): no | Expected coverage (Pseudomonas aeruginosa): no | Expected coverage (Proteus mirabilis): no | Expected coverage (Streptococcus pyogenes): yes | Expected coverage (Klebsiella pneumoniae): no | Expected coverage (Proteus vulgaris): no | Expected coverage (Shigella dysenteriae): no | Expected coverage (Shigella boydii): no | Expected coverage [1]: no | Expected coverage [2]: yes | Expected coverage (Corynebacterium jeikeium): no | Expected coverage (Francisella tularensis): no | Expected coverage [3]: no | Expected coverage (Neisseria meningitidis): no | Expected coverage (Brucella species): no | Expected coverage (Salmonella typhi): no | Expected coverage (Legionella pneumophila): no | Expected coverage (Yersinia pestis): no | Expected coverage (Campylobacter jejuni): no | Expected coverage (Enterobacter aerogenes): no | Expected coverage (Acinetobacter baumannii): no | Expected coverage [4]: no | Expected coverage (Serratia marcescens): no | Expected coverage (Haemophilus ducreyi): no | Expected coverage [5]: yes | Expected coverage (Citrobacter diversus): no | Expected coverage (Providencia stuartii): no | Expected coverage (Neisseria gonorrhoeae): no | Expected coverage (Bartonella bacilliformis): no | Expected coverage (Vibrio cholerae): no | Expected coverage (Bordetella pertussis): no | Expected coverage (Enterobacter sakazakii): no | Expected coverage (Klebsiella oxytoca): no | Expected coverage (Clostridium perfringens): no | Expected coverage (Morganella morganii): no | Expected coverage (Acinetobacter lwoffii): no | Expected coverage (Escherichia coli): no | Expected coverage (Enterobacter cloacae): no | Expected coverage (Shigella sonnei): no | Expected coverage (Rickettsiae): no | Expected coverage (Moraxella catarrhalis): no | Expected coverage (Pseudomonas fluorescens): no

O=C(O)c1cn(C2CC2)c2cc(N3CCNCC3)c(F)cc2c1=O [Ciprofloxacin, ciprofloxacin]
Expected coverage (Providencia rettgeri): yes | Expected coverage (Shigella flexneri): yes | Expected coverage (Citrobacter freundii): yes | Expected coverage (Haemophilus influenzae): yes | Expected coverage (Pseudomonas aeruginosa): yes | Expected coverage (Proteus mirabilis): yes | Expected coverage [6]: yes | Expected coverage (Klebsiella pneumoniae): yes | Expected coverage (Enterococcus faecium): no | Expected coverage (Proteus vulgaris): yes | Expected coverage (Shigella dysenteriae): yes | Expected coverage (Shigella boydii): yes | Expected coverage (Corynebacterium jeikeium): no | Expected coverage (Francisella tularensis): yes | Expected coverage (Neisseria meningitidis): yes | Expected coverage (Salmonella typhi): yes | Expected coverage (Legionella pneumophila): yes | Expected coverage (Yersinia pestis): yes | Expected coverage (Campylobacter jejuni): yes | Expected coverage [7]: yes | Expected coverage (Bacteroides fragilis): no | Expected coverage (Enterobacter aerogenes): yes | Expected coverage (Serratia marcescens): yes | Expected coverage [5]: no | Expected coverage (Chlamydia pneumoniae): yes | Expected coverage (Citrobacter diversus): yes | Expected coverage (Providencia stuartii): yes | Expected coverage (Neisseria gonorrhoeae): yes | Expected coverage (Bartonella bacilliformis): yes | Expected coverage (Vibrio cholerae): yes | Expected coverage (Klebsiella oxytoca): yes | Expected coverage (Morganella morganii): yes | Expected coverage (Escherichia coli): yes | Expected coverage (Shigella sonnei): yes | Expected coverage (Rickettsiae): yes | Expected coverage (Moraxella catarrhalis): yes | Expected coverage (Pseudomonas fluorescens): yes

colistimethate
Expected coverage (Mycoplasma pneumoniae): no | Expected coverage (Providencia rettgeri): no | Expected coverage (Pseudomonas aeruginosa): yes | Expected coverage (Proteus mirabilis): no | Expected coverage (Streptococcus pyogenes): no | Expected coverage [6]: no | Expected coverage (Klebsiella pneumoniae): yes | Expected coverage (Enterococcus faecium): no | Expected coverage (Proteus vulgaris): no | Expected coverage [8]: no | Expected coverage [2]: no | Expected coverage (Corynebacterium jeikeium): no | Expected coverage (Chlamydia psittaci): no | Expected coverage [3]: no | Expected coverage (Chlamydia trachomatis): no | Expected coverage (Neisseria meningitidis): no | Expected coverage (Brucella species): no | Expected coverage (Legionella pneumophila): no | Expected coverage [7]: no | Expected coverage (Bacteroides fragilis): no | Expected coverage (Streptococcus agalactiae): no | Expected coverage (Enterobacter aerogenes): yes | Expected coverage (Diphtheroids): no | Expected coverage (Enterococcus faecalis): no | Expected coverage [4]: yes | Expected coverage (Serratia marcescens): no | Expected coverage [5]: no | Expected coverage (Chlamydia pneumoniae): no | Expected coverage (Providencia stuartii): no | Expected coverage (Neisseria gonorrhoeae): no | Expected coverage (Peptostreptococcus): no | Expected coverage (Vibrio cholerae): no | Expected coverage (Bordetella pertussis): no | Expected coverage (Enterobacter sakazakii): yes | Expected coverage (Klebsiella oxytoca): yes | Expected coverage (Clostridium difficile): no | Expected coverage (Escherichia coli): yes | Expected coverage (Enterobacter cloacae): yes | Expected coverage (Moraxella catarrhalis): no | Expected coverage (Streptococcus pneumoniae): no | Expected coverage (Pseudomonas fluorescens): yes
